Measured values: patent publication US10568978B2, “Radiopharmaceutical synthesis methods” (Lantheus Medical Imaging, Inc., priority 2012, dated 2020)

Key:
Format in all cases: physicochemical
[1] = Measured log D (relative lipophilicity of analytes); conditions: relative to BMS-747158-01
[2] = Retention of flurpiridaz F 18 on PVDF, PTFE and RC filters with synthesis modules; conditions: Siemens Explora GN/LC (manual) and GE TracerLab MX (automated) modules; FIG. 9
Text: This was particularly surprising since structurally and chemically, the PVDF filter is more similar to the PTFE filter than the RC filter. Further, the data substantiate that use of the RC filter membrane improves recovery of ^18F-bearing radiopharmaceuticals across multiple synthesis module platforms.

[3] = Filter retention: percent recovery of analyte after syringe-pump filtration, HPLC at 295 nm pre- and post-filtration
Description: In particular, compositions comprising BMS-747158-01 and BMS-747159-01 were prepared in water comprising absolute ethanol (4 wt. %) and sodium ascorbate (50 mg/mL; 5 wt. %) then loaded into plastic syringes (Norm-Ject™; 12 mL) and placed onto an automated syringe pump. Select filters were then placed on each respective syringe and the composition pumped through the units in a controlled fashion. In all cases, gravimetric analysis of the solution transfer process was performed in order to monitor efficiency of the liquid handling steps. Subsequent quantitative analysis of filter retention was then performed following HPLC determination of the absolute concentration of each analyte in both the pre- and post-filtered solutions; HPLC analysis with detection at 295 nm was performed according to established methods. The following equation was then utilized to determine the percent recovery for each analyte:
[formula] Note a higher value of percent recovery equates to lower retention of the respective analyte, and thus improved overall filter performance. The analysis described herein captures both the mass of the compound that is retained as well as the volume of liquid that is retained. As no normalization is performed, the analysis thus allows for direct comparison of relevant filter parameters.
The compositions comprising BMS-747158-01 and BMS-747159-01 were passed through a variety of filters, as described herein. Individual filter parameters varied in terms of both membrane and housing composition, overall filter diameter, and in some instances the applied coating (Table 1). Further, effects of both individual analyte concentration as well as the overall rate of filtration were also evaluated.

CC(C)(C)n1ncc(OCc2ccc(COCCO)cc2)c(Cl)c1=O [BMS-747159-01]
lipophilicity (measured log D, relative) [1]: lower inherent lipophilicity

CC(C)(C)n1ncc(OCc2ccc(COCC[18F])cc2)c(Cl)c1=O [flurpiridaz F 18]
retention on PTFE and RC filters vs PVDF filter [2]: retain far less

CC(C)(C)n1ncc(OCc2ccc(COCCF)cc2)c(Cl)c1=O [BMS-747158-01]
retention by filter housing composition ([3]; HDPE and PP housings (no aromatic rings), filters of identical diameter, FIG. 5): retained lower amounts
retention on PTFE and RC membranes in comparison to PVDF ([3]; PTFE and RC filter membranes vs PVDF, FIG. 8): retained lower amounts
retention by membrane composition ([3]; PVDF membrane vs other membranes, filters of identical diameter, FIG. 4): retains the greatest amount
retention after the initial filtration ([3]; Pall PVDF filter, initial filtration, FIG. 6): retained large amounts
